According to patent US7504231B2, “Method of alleviating chronic pain via peripheral inhibition of neurotransmitter synthesis” (The Board of Regents of the University of Oklahoma, priority 2001, dated 2009):
“Also recorded” adds a separate entry of the source. One block for each compound: values may come before it.

Experiments:
[1] = tested on: CFA induced inflammation of the rat hindpaw (mechanical allodynia); test: Pressure sensitivity with von Frey hairs (paw pressure withdrawal threshold) in rats with CFA hindpaw inflammation; format: in vivo; conditions: for Paw pressure withdrawal thresholds (PPWT): CFA+saline 5-12 g, control 50-70 g
Protocol: (§1) For the experiments described in FIGS. 1-16, adult Sprague Dawley male rats, 200-300 g, were used. One set of normal rats was used to evaluate the effects of fixation on glutaminase immunohistochemical staining and for determining antisera dilutions. For all other rats, at day 0, a limited arthritis was induced in the right hindpaw by the intraplantar subcutaneous injection of 75-150 μl of complete Freund's adjuvant (CFA; Mycobacterium butyricum; Sigma) emulsified in saline (1:1). Controls were naive rats that received no injection or rats that received intraplantar injection of saline (75 μl). For peripheral glutaminase inhibition studies, the inflamed hindpaws were injected with glutaminase inhibitors (25 μl) at day 3 of inflammation. Some rats with inflammation received saline injections (25 μl) into the inflamed hindpaw at day 3. […] Efforts were made to minimize the number of animals used for this study.
Two to three days prior to and for the days following CFA injection, rats were tested for pressure sensitivity with von Frey hairs (Semmes-Weinstein monofilaments; Stoelting, Inc.). […] Monofilaments calibrated for specific forces were inserted through the holes underneath the box to probe the plantar surface of the hindpaw, 5 times in 3-4 sec intervals in different places on the plantar surface. Filaments with light force were used first, followed by filaments of increasing force. A filament was slowly applied perpendicularly to the plantar surface until bending of the filament occurred. […] The threshold force was defined as the filament (force) that caused the foot retraction without bending the monofilament three out of five times. Using a conversion table for the filaments, thresholds were reported as gram force.

[2] = tested on: CFA induced inflammation of the rat hindpaw (thermal hyperalgesia); test: Thermal latencies (Hargreaves' model) in rats with CFA hindpaw inflammation; format: in vivo
Protocol: as §1
Thermal latencies for the footpad plantar surface were determined with the Hargreaves' model (Ugo Basile, Italy). Rats were placed on an elevated glass plate (3 mm) in clear plastic boxes with air holes in the lids and allowed to acclimate for 10 minutes. Radiant heat was applied to the plantar surface of the hindpaw and the withdrawal latency recorded. A second test was followed after 5-10 minutes. All behavioral testing occurred at 21-22° C. with indirect lighting in the testing room. Differences between groups for pressure thresholds and thermal latencies were determined with a Student's t test (p<0.05 for significance) using InStat biological statistics program (GraphPad Software, Inc., San Diego).

[3] = tested on: CFA induced inflammation of the rat hindpaw (mechanical allodynia); test: Pressure sensitivity with von Frey hairs (paw pressure withdrawal threshold) in rats with CFA hindpaw inflammation; format: in vivo; conditions: for pressure responses after intrathecal inhibitor: injected intrathecally prior to initiation of CFA inflammation, tested 4 days, before ~70 gms, CFA ~10 gms
[4] = tested on: hindpaw of normal rats; test: DON controls: pressure and thermal sensitivities after intraplantar injection in normal rats; format: in vivo, rat; conditions: DON 10 μMole/25 μl injected on day 3, no inflammation
Protocol: FIG. 10 illustrates DON controls.
Two to three days prior to and for the days following CFA injection, rats were tested for pressure sensitivity with von Frey hairs (Semmes-Weinstein monofilaments; Stoelting, Inc.). Rats were allowed to acclimate for five to ten minutes in a plastic box (25×25×25 cm) with 6 mm holes spaced every 6 mm [Pitcher et al, 1999a,b]. Monofilaments calibrated for specific forces were inserted through the holes underneath the box to probe the plantar surface of the hindpaw, 5 times in 3-4 sec intervals in different places on the plantar surface. Filaments with light force were used first, followed by filaments of increasing force. A filament was slowly applied perpendicularly to the plantar surface until bending of the filament occurred. […] The threshold force was defined as the filament (force) that caused the foot retraction without bending the monofilament three out of five times. […]
Thermal latencies for the footpad plantar surface were determined with the Hargreaves' model (Ugo Basile, Italy). […] Radiant heat was applied to the plantar surface of the hindpaw and the withdrawal latency recorded. […] Differences between groups for pressure thresholds and thermal latencies were determined with a Student's t test (p<0.05 for significance) using InStat biological statistics program (GraphPad Software, Inc., San Diego).

[5] = tested on: GLU-IR fibers in the paw skin; test: Glutamate immunohistochemistry of hindpaw skin after CFA inflammation; format: in vivo, rat; conditions: CFA + inhibitor, skin after 7 days; control very little, CFA+saline many intense fibers
Protocol: (§2) The skin from the hindpaws were also processed for GLU and GT immunohistochemistry after 7 days (FIG. 12). Control rats had very little GLU or GT-immunoreactive (IR) fibers in the paw skin. Skin from CFA+saline rats contained many intense GLU-IR and GT-IR fibers.
(§3) For immunohistochemical localization of GT, rats at 3, 7, and 10 days (n=6 CFA/time pt; n=4 control/time pt; n=3 additional controls) were anesthetized with sodium pentobarbital (90 mg/kg) and transcardially perfused with fixative: 0.2% paraformaldehyde (PFA), […] (PA) in 0.1M phosphate buffer, pH 7.4 [Miller et al, 1993, 2002]. Right and left L4DRG's and hindpaws were removed and placed overnight in fixative at 4° C.; the PFA concentration was increased to 2% for post-fixation [Miller et al, 1993, 2002]. Additional control rats (n=3) were perfused transcardially with 4% PFA in 0.1M Sorenson's phosphate buffer, pH 7.4. DRG's were removed and placed in fixative overnight at 4° C. All tissues were transferred to 20% sucrose in 0.1M Sorenson's phosphate buffer, pH 7.4 for 24-96 hr. at 4° C. The tissue was frozen, sectioned at 20 μm in a cryostat, thaw mounted onto gelatin coated slides, and dried for 1 hr. at 37° C. […]

[6] = tested on: GT-IR fibers in the paw skin; test: Glutaminase immunohistochemistry of hindpaw skin after CFA inflammation; format: in vivo, rat; conditions: CFA + inhibitor, skin after 7 days; control very little, CFA+saline many intense fibers
Protocol: as §2, §3

[7] = BB 200 μM/25 μl at day three following CFA inflammation
[8] = NEM 10 mM/25 μl at day three following CFA inflammation
[9] = P-CoA 2 mM/25 μl at day three following CFA inflammation

SMILES: Cc1c(C2(c3cc(C(C)C)c(O)c(Br)c3C)OS(=O)(=O)c3ccccc32)cc(C(C)C)c(O)c1Br [BB, bromothymol blue]
long term pain relief to pressure (mechanical stimulation) [1, 7]: pain relief on Day 5 | long term pain relief to heat (thermal stimulation) [2, 7]: pain relief from Days 5-7 and at near normal levels from Days 6 and 7

SMILES: O=c1oc2ccccc2c(O)c1Cc1c(O)c2ccccc2oc1=O [DC, dicoumarol]
Thermal latencies (hyperalgesia) as inflammation progressed ([2]; dicoumarol 15 μl @ 500 μM i.t. on days 0, 1 and 2, CFA at Day 0): less hyperalgesic | pressure responses (allodynia) as inflammation progressed ([3]; dicoumarol 15 μl @ 500 μM i.t. on days 0, 1 and 2, CFA at Day 0, data not shown): less hyperalgesic and allodynic

SMILES: [N-]=[N+]=CC(=O)CC[C@H](N)C(=O)O [DON, 6-diazo-5-oxo-L-norleucine]
Paw pressure withdrawal thresholds (PPWT) ([1]; CFA+DON rats, 25 μl into right paw after 2-3 days, from 6 hours through the duration of the experiment): 20 to 30 g | dose response for pain relief from pressure, area under the curve Day 3 to Day 5 ([1]; DON 0.1-10 μMole/25 μl): No differences in the amount of pain relief | long term pain relief to pressure (mechanical stimulation) ([1]; DON 0.1-10 μMole/25 μl, three doses, at day three following CFA inflammation): pain relief occurred for several days | dose response for pain relief from thermal stimulation, area under the curve Day 3 to Day 5 ([2]; DON 0.1-10 μMole/25 μl): most efficacious at the higher doses | long term pain relief to heat (thermal stimulation) ([2]; DON 0.1-10 μMole/25 μl, all three doses, at day 3 after CFA inflammation): pain relief occurred for several days | pain relief to heat (thermal responses) ([2]; DON 0.1 and 1 μMole at day 3 after CFA inflammation): pain relief to near normal levels for at least one day | pain relief to heat (thermal responses) ([2]; DON 10 μMole at day 3 after CFA inflammation): bringing thermal responses back to normal for two days | pressure sensitivity in normal rats [4]: same as saline controls | thermal sensitivity in normal rats [4]: same as saline controls | GLU-IR fibers in hindpaw skin [5]: reduced to near normal levels; also recorded: moderate numbers | GT-IR fibers in hindpaw skin [6]: moderate numbers | pressure responses after intrathecal inhibitor [3]: near normal pressure responses for several days

SMILES: O=C(O)CF [FA, fluoroacetate]
pressure responses after intrathecal inhibitor [3]: near normal pressure responses for several days

SMILES: CS(=N)(=O)CC[C@H](N)C(=O)O (stereo partly drawn) [MSO, methionine sulfoximine]
pressure responses ([1]; MSO injected into inflamed hindpaw at Day 3, one-time, over several days, before inflammation ~70 gms, after ~10 gms): ~50 gms | Thermal responses ([2]; MSO injected into inflamed hindpaw at Day 3, one-time, before inflammation ~9 sec, after ~3 sec): near normal levels by day 6 through day 9 | pressure responses after intrathecal inhibitor [3]: near normal pressure responses for several days

GT-IR fibers in hindpaw skin [6]: moderate numbers
SMILES: CCN1C(=O)C=CC1=O [NEM, N-ethylmaleimide]
Paw pressure withdrawal thresholds (PPWT) ([1]; CFA+NEM rats, after 48 hours): 20 to 25 g | long term pain relief to pressure (mechanical stimulation) [1, 8]: pain relief occurred for several days | long term pain relief to heat (thermal stimulation) [2, 8]: pain relief occurred to near normal levels at days four and six | GLU-IR fibers in hindpaw skin [5]: reduced to near normal levels; also recorded: moderate numbers

SMILES: CCCCCCCCCCCCCCCC(=O)SCCNC(=O)CCNC(=O)[C@H](O)C(C)(C)COP(=O)(O)OP(=O)(O)OC[C@H]1O[C@@H](n2cnc3c(N)ncnc32)[C@H](O)[C@@H]1OP(=O)(O)O [P-CoA, Palmitoyl Coenzyme A]
long term pain relief to pressure (mechanical stimulation) [1, 9]: pain relief from Days 4-7 | long term pain relief to heat (thermal stimulation) [2, 9]: pain relief to near normal levels from Days 4-7
